# Measured values from article PMC7473772 (eLife, 2020).
# “And” between values parts separate entries of the source, which are not always exact repeats. Equal values may be shown once. Read-outs that look alike come from different tables or passages of the source.
# Columns and labels:
# [1] = test system: tbaqp2/tbaqp3 null cells expressing TbAQP2^I190T; type: cell-based, Trypanosoma brucei brucei
# [2] = test system: tbaqp2/tbaqp3 null cells expressing TbAQP2^L264R; type: cell-based, Trypanosoma brucei brucei
# [3] = test system: tbaqp2/tbaqp3 null cells expressing TbAQP2 L118W; assay: microbe, parasite or virus in culture; type: cell-based, Trypanosoma brucei brucei
# [4] = test system: tbaqp2/tbaqp3 null cells; assay: microbe, parasite or virus in culture; type: cell-based, Trypanosoma brucei brucei
# [5] = test system: tbaqp2/tbaqp3 null cells expressing TbAQP2^I190T/W192G; type: cell-based, Trypanosoma brucei brucei
# [6] = test system: tbaqp2/tbaqp3 null cells expressing TbAQP2WT; assay: microbe, parasite or virus in culture; type: cell-based, Trypanosoma brucei brucei; settings: for EC50: Trypanosoma brucei
# [7] = test system: tbaqp2/tbaqp3 null cells expressing TbAQP2 L84M; assay: microbe, parasite or virus in culture; type: cell-based, Trypanosoma brucei brucei
# [8] = test system: tbaqp2/tbaqp3 null cells expressing TbAQP2^W192G; type: cell-based, Trypanosoma brucei brucei
# [9] = test system: tbaqp2/tbaqp3 null cells expressing TbAQP2^S131P/S263A; type: cell-based, Trypanosoma brucei brucei
# [10] = test system: tbaqp2/tbaqp3 null cells expressing TbAQP2^L258Y; type: cell-based, Trypanosoma brucei brucei
# [11] = test system: tbaqp2/tbaqp3 null cells expressing TbAQP3^W102I/R256L; type: cell-based, Trypanosoma brucei brucei
# [12] = test system: tbaqp2/tbaqp3 null cells expressing TbAQP3^W102I/R256L/Y250L; type: cell-based, Trypanosoma brucei brucei
# [13] = test system: tbaqp2/tbaqp3 null cells expressing TbAQP2 L118M; assay: microbe, parasite or virus in culture; type: cell-based, Trypanosoma brucei brucei
# [14] = test system: tbaqp2/tbaqp3 null cells expressing TbAQP2 L218W; assay: microbe, parasite or virus in culture; type: cell-based, Trypanosoma brucei brucei
# [15] = test system: tbaqp2/tbaqp3 null cells expressing TbAQP3; type: cell-based, Trypanosoma brucei brucei
# [16] = test system: tbaqp2/tbaqp3 null cells expressing TbAQP2 L218M; assay: microbe, parasite or virus in culture; type: cell-based, Trypanosoma brucei brucei
# [17] = test system: tbaqp2/tbaqp3 null cells expressing TbAQP2 L84W; assay: microbe, parasite or virus in culture; type: cell-based, Trypanosoma brucei brucei
# [18] = test system: tbaqp2/tbaqp3 null cells expressing TbAQP2^I110W; type: cell-based, Trypanosoma brucei brucei
# [19] = test system: T. b. brucei 2T1; assay: Drug sensitivity assay (resazurin); type: cell-based; settings: Trypanosoma brucei, 48 h drug + 24 h resazurin, read-out: EC50 control 2T1 AVG
# Protocol: The tbaqp2/tbaqp3 null cells ([Baker et al., 2012]) and tbaqp1-2-3 null cells ([Jeacock et al., 2017]) (both obtained from David Horn, University of Dundee, UK) are derived from the 2T1 strain of T. b. brucei ([Alsford and Horn, 2008]). The CRK12 RNAi cell line^28 was obtained from Dr Tansy Hammarton (University of Glasgow, UK) and is also based on the 2T1 cell line; RNAi expression was induced with 1 µg/ml tetracycline in the medium. All experiments were performed with bloodstream form trypanosomes grown in vitro in HMI-11 medium as described ([Wallace et al., 2002]) at 37°C in a 5% CO2 atmosphere. Cultures were routinely maintained in 10 ml of this medium, being seeded at 5 × 10^4 cells/ml and passed to fresh medium at reaching approximately 3 × 10^6 cells/ml after 48 hr. For transport experiments 150 or 200 ml of culture was seeded at the same density in large flasks and incubated until the culture reached late-log phase.
# Drug sensitivity assays for T. b. brucei bloodstream forms used the cell viability dye resazurin (Sigma) and were performed exactly as described ([Wallace et al., 2002]; [Bridges et al., 2007]) in 96-well plates with doubling dilutions of test compound, starting at 100 µM, over 2 rows of the plate (23 dilutions plus no-drug control). Incubation time with test compound was 48 hr (37°C/5% CO2), followed by an additional 24 hr in the presence of the dye.
# [20] = molecular target: TbAQP2/HAPT1 (Trypanosoma brucei brucei, UniProt Q6ZXT3); assay: cell-based; type: cell-based
# [21] = test system: tbaqp2 null (AQP2-KO); assay: Drug sensitivity assay (resazurin); type: cell-based; settings: Trypanosoma brucei, read-out: EC50 AQP2-KO AVG, AQP2-KO / tbaqp2 null; 48 h drug + 24 h resazurin
# [22] = test system: tbaqp2/tbaqp3 null cells expressing TbAQP2^I110W/L264R; type: cell-based, Trypanosoma brucei brucei
# [23] = Trypanosoma brucei, read-out: EC50, MEAN
# [24] = Trypanosoma brucei, read-out: EC50, single repeats
# [25] = Trypanosoma brucei, read-out: EC50, MEAN (nM)
# Sequence of TbAQP2/HAPT1 (Q6ZXT3 whole entry): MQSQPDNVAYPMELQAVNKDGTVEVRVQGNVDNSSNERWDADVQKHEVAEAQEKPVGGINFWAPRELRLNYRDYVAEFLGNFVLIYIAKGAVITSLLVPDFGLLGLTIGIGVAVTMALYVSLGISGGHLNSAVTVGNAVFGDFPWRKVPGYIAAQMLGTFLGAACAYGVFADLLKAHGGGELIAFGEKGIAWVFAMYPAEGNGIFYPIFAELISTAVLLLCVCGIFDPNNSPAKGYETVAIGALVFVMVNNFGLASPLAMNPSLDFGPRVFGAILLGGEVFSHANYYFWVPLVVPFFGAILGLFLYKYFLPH
compound,measurement,setting,value
Cl.Cl.NCCS[As](SCCN)c1ccc(Nc2nc(N)nc(N)n2)cc1 [Cymelarsan],"EC50 as percent of AQP2/3 null EC50, MEAN",[1],64.67%
same,"EC50, percent of AQP2/3 null EC50",[2],99.62%
same,"EC50 (% of aqp2/aqp3 null), MEAN",[3],92.14 % of aqp2/aqp3 null
same,"EC50 (% of aqp2/aqp3 null), single repeats",[3],88.70 % of aqp2/aqp3 null and 124.82 % of aqp2/aqp3 null and 62.91 % of aqp2/aqp3 null
same,EC50,"[3]; read-out: EC50, MEAN",18.4 nM
same,EC50,"[3]; read-out: EC50, single repeats",17.7 nM and 24.9 nM and 12.5 nM
same,"EC50 (% of aqp2/aqp3 null), MEAN",[4],100.00 % of aqp2/aqp3 null
same,"EC50 (% of aqp2/aqp3 null), single repeats",[4],100.09 % of aqp2/aqp3 null and 107.11 % of aqp2/aqp3 null and 92.80 % of aqp2/aqp3 null and 105.96 % of aqp2/aqp3 null and 97.29 % of aqp2/aqp3 null and 96.75 % of aqp2/aqp3 null and 92.36 % of aqp2/aqp3 null and 100.54 % of aqp2/aqp3 null
same,"EC50, MEAN (% KO)",[4],100.00 % KO
same,"EC50, percent of AQP2/3 null EC50",[4],100.00%
same,"EC50 as percent of AQP2/3 null EC50, MEAN",[4],100.00%
same,"EC50 as percent of AQP2/3 null EC50, single repeats",[4],100.0%
same,EC50,"[4]; read-out: EC50, MEAN",19.9 nM
same,"EC50 as percent of AQP2/3 null EC50, MEAN",[5],95.01%
same,"EC50 as percent of AQP2/3 null EC50, single repeats",[5],84.5691% and 96.0784% and 104.69% and 94.6857%
same,"EC50 (% of aqp2/aqp3 null), MEAN",[6],14.85 % of aqp2/aqp3 null
same,"EC50, MEAN (% KO)",[6],21.40 % KO
same,"EC50, percent of AQP2/3 null EC50",[6],11.82% and 12.84% and 17.72% and 13.38%
same,"EC50 as percent of AQP2/3 null EC50, MEAN",[6],12.527% and 12.55%
same,"EC50, MEAN (% KO)",[7],62.94 % KO
same,EC50,"[7]; read-out: EC50, MEAN",13.9 nM
same,EC50,"[7]; read-out: EC50, single repeats",14.7 nM and 14.5 nM and 12.4 nM and 13.7 nM and 10.5 nM and 17.1 nM
same,"EC50 as percent of AQP2/3 null EC50, MEAN",[8],42.01%
same,"EC50 as percent of AQP2/3 null EC50, single repeats",[8],38.89% and 33.6754% and 48.5349% and 30.3438% and 47.7536% and 38.5508% and 45.4365% and 52.8716%
same,"EC50, percent of AQP2/3 null EC50",[9],58.29%
same,"EC50, percent of AQP2/3 null EC50",[10],33.16%
same,"EC50, percent of AQP2/3 null EC50",[11],105 ± 8%
same,"EC50, percent of AQP2/3 null EC50",[12],159 ± 8%
same,"EC50 (% of aqp2/aqp3 null), single repeats",[13],106.00 % of aqp2/aqp3 null and 109.38 % of aqp2/aqp3 null and 101.17 % of aqp2/aqp3 null and 149.03 % of aqp2/aqp3 null and 147.52 % of aqp2/aqp3 null
same,"EC50, MEAN (% KO)",[13],122.62 % KO
same,EC50,"[13]; read-out: EC50, MEAN",34.3 nM
same,EC50,"[13]; read-out: EC50, single repeats",34.5 nM and 35.6 nM and 32.9 nM and 24.6 nM and 24.4 nM
same,"EC50 (% of aqp2/aqp3 null), MEAN",[14],94.01 % of aqp2/aqp3 null
same,"EC50 (% of aqp2/aqp3 null), single repeats",[14],100.13 % of aqp2/aqp3 null and 113.78 % of aqp2/aqp3 null and 68.13 % of aqp2/aqp3 null
same,EC50,"[14]; read-out: EC50, MEAN",18.7 nM
same,EC50,"[14]; read-out: EC50, single repeats",20 nM and 22.7 nM and 13.6 nM
same,"EC50, percent of AQP2/3 null EC50",[15],114 ± 5%
same,"EC50, MEAN (% KO)",[16],58.15 % KO
same,EC50,"[16]; read-out: EC50, MEAN",11.2 nM
same,EC50,"[16]; read-out: EC50, single repeats",11.4 nM and 11.3 nM and 10.9 nM and 12.3 nM and 12.4 nM and 15.8 nM
same,"EC50 (% of aqp2/aqp3 null), MEAN",[17],100.47 % of aqp2/aqp3 null
same,"EC50 (% of aqp2/aqp3 null), single repeats",[17],103.60 % of aqp2/aqp3 null and 103.34 % of aqp2/aqp3 null and 94.46 % of aqp2/aqp3 null
same,EC50,"[17]; read-out: EC50, MEAN",20 nM
same,EC50,"[17]; read-out: EC50, single repeats",20.6 nM (2×) and 18.8 nM
same,"EC50, percent of AQP2/3 null EC50",[18],106.64%
N=C(N)c1ccc(/N=N/Nc2ccc(C(=N)N)cc2)cc1 [Diminazene],"EC50, percent of AQP2/3 null EC50",[2],99.35%
same,"EC50 (% of aqp2/aqp3 null), MEAN",[3],95.82 % of aqp2/aqp3 null
same,"EC50 (% of aqp2/aqp3 null), single repeats",[3],118.42 % of aqp2/aqp3 null and 101.85 % of aqp2/aqp3 null and 67.18 % of aqp2/aqp3 null
same,EC50,[3]; [23],72.8 nM
same,EC50,[3]; [24],90 nM
same,EC50,"[3]; read-out: EC50, single repeats",77.4 nM and 51.1 nM
same,"EC50 (% of aqp2/aqp3 null), MEAN",[4],100.00 % of aqp2/aqp3 null
same,"EC50, MEAN (% KO)",[4],100.00 % KO
same,"EC50, percent of AQP2/3 null EC50",[4],100.00%
same,"EC50 as percent of AQP2/3 null EC50, MEAN",[4],100.00%
same,"EC50 as percent of AQP2/3 null EC50, single repeats",[4],100%
same,EC50,[4]; [23],76 nM
same,EC50,[4]; [25],175 nM
same,EC50,[19],122 nM
same,"EC50 (% of aqp2/aqp3 null), MEAN",[6],97.55 % of aqp2/aqp3 null
same,"EC50, MEAN (% KO)",[6],98.90 % KO
same,"EC50, percent of AQP2/3 null EC50",[6],96.75% and 102.22% and 102.99% and 78.60%
same,"EC50 as percent of AQP2/3 null EC50, MEAN",[6],102.99%
same,EC50,"[6]; read-out: EC50, MEAN",74.2 nM
same,EC50,"[6]; read-out: EC50, MEAN (nM)",149 nM
same,"EC50, MEAN (% KO)",[7],99.61 % KO
same,EC50,[7]; [25],145 nM
same,"EC50, percent of AQP2/3 null EC50",[9],93.48%
same,"EC50, percent of AQP2/3 null EC50",[10],105.69%
same,ΔG0,[20],-5.74 kcal/mol
same,δ(ΔG0),[20],4.45 kcal/mol
same,Ki,"[20]; HAPT Ki, AVG",62500 nM
same,Ki,[20]; Ki,63000 nM
same,EC50,[21],108 nM
same,"EC50 as percent of AQP2/3 null EC50, MEAN",[22],108.15%
same,"EC50, MEAN (% KO)",[13],93.77 % KO
same,EC50,[13]; [25],177 nM
same,"EC50 (% of aqp2/aqp3 null), MEAN",[14],38.99 % of aqp2/aqp3 null
same,Sensitisation relative to tbaqp2/tbaqp3 null,[14],~ 2 fold
same,EC50,[14]; [23],29.6 nM
same,"EC50, MEAN (% KO)",[16],48.28 % KO
same,Sensitisation relative to tbaqp2/tbaqp3 null,[16],~ 2 fold
same,EC50,[16]; [25],54 nM
same,EC50,[16]; [24],38.7 nM
same,EC50,"[16]; read-out: EC50, single repeats",61.5 nM and 61.9 nM and 39.1 nM and 34.8 nM and 41.6 nM
same,"EC50 (% of aqp2/aqp3 null), MEAN",[17],113.28 % of aqp2/aqp3 null
same,"EC50 (% of aqp2/aqp3 null), single repeats",[17],126.86 % of aqp2/aqp3 null and 125.65 % of aqp2/aqp3 null and 87.33 % of aqp2/aqp3 null
same,EC50,[17]; [23],86.1 nM
same,EC50,[17]; [24],96.4 nM
same,EC50,"[17]; read-out: EC50, single repeats",95.5 nM and 66.4 nM
same,"EC50, percent of AQP2/3 null EC50",[18],114.65%
